Source: patent US7790766B2, “Pharmaceutical compositions of short-acting sedative hypnotic agent” (Theravance, Inc., priority 2003, dated 2010)

Assay: Solubility in aqueous media
Type: physicochemical

SMILES: CCCOC(=O)Cc1ccc(OCC(=O)N(CC)CC)c(OCC)c1 [Compound 1, [4-[(N,N-diethylcarbamoyl)methoxy]-3-ethoxyphenyl]acetic acid propyl ester]
- Solubility in aqueous media: poorly, if, at all soluble
